Data from patent publication US8507408B2 (Dow Global Technologies LLC, priority 2010, dated 2013).
In brackets after ≈: the same amount, converted by molar mass. Where two headings read alike, the source gives them in different places.

Assays:
[1] = system: An + Pf; assay: Fungal efficacy on dry paint film (Modified ASTM 5590); format: cell-based, Aspergillus niger, Penicillium funiculosum; details: for MIC: total actives in paint, read-out: Total conc (minimum inhibitory concentration chosen for SI)
Method: (§1) A single biocide or blend of biocides was post added into white acrylic latex paint free of biocides to give a maximum total active ingredient/s concentration tested. This paint was then diluted with a biocide free acrylic latex paint to give targeted concentrations for the testing. Depending on the type of biocide blends tested, the total biocides concentrations varies from 400 to 3300 ppm. After biocides addition or dilution, each sample was hand mixed for at least a minute until uniformity was achieved. Each of the paint samples as well as a control sample (containing no biocide) were used to prepare films on black plastic-vinyl chloride/acetate copolymer panels (Leneta Company, Mahwah, N.J.) using a 0.0762 mm (3 mil) bird bar applicator. The panels were thoroughly dried for at least 2 days avoiding direct exposure to sunlight. Square discs (0.5 inch^2; 1.27 cm^2) were cut out from each panel and were used as the substrate for fungal and algal efficacy tests. This sample size allowed for an agar border when the sample disc was placed into the well of the test plate. Each sample was tested in duplicate.
(§2) The appropriate media (BOLD'S 3N for Chlorophytes, BG-11 for Cyanobacteria, and PDA for fungi) were used to support microbial growth. The test plates were maintained at room temp (25° C.-26° C.), in a cycled light-dark environment, for four weeks for algae. Plates for fungal challenge tests were maintained at 30° C. for four weeks. At the end of the incubation period the samples were scored for percent area covered by visible microbial growth.
(§3) ASTM 5590 is a standard accelerated test method for determining resistance of various coatings (including paints) to fungal defacement. To accommodate for high-throughput screening, this method was scaled down from petri plates to 6-well plates. To set up the test, an agar plug was placed at the bottom of each well of the sterile 6-well plate. A single coupon was placed with a pair of sterile forceps at the center of the agar plug (on top) with the painted surface facing upwards. Fungal inoculums were prepared by mixing equal concentrations (approximately 1×10^6 cfu/ml) and equal volumes (depending on number of samples to be tested) of like growing organisms. For this synergy study, three pools of mixed fungi were prepared as the test inoculum. Cladosporium herbarum was mixed with Trichoderma viride, Aspergillus niger was mixed with Penicillium funiculosum and Alternaria alternata was mixed with Aureobasidium pullulans. Each well was inoculated with 400 microliter of organism mixture (approximately 1×10^6 cfu/ml) making sure that the whole surface (paint film as well as the agar surrounding it) was evenly covered. The plates were incubated at 30° C. in presence of moisture, for a period of four weeks. The total percent area covered was evaluated and recorded at the end of each week and recorded in increments of 5%.
(§4) The SI is calculated based on F. C. Kull et.
(§5) NE=no end point at the concentration tested that will meet the percent inhibition criteria set in each SI calculation.

[2] = system: AaTv; assay: as above; format: cell-based, Alternaria alternata, Trichoderma viride; details: for % Inhibition: at the total conc; for MIC: total actives in paint, read-out: Total conc (minimum inhibitory concentration chosen for SI)
[3] = system: Cs + Ck + Nc; assay: Algal efficacy on dry paint film (Modified ASTM 5589); format: cell-based, Chlorella sp., Chlorella kessleri, and Nostoc commune; details: for MIC: Nostoc commune, total actives in paint, read-out: Total conc (minimum inhibitory concentration chosen for SI)
Method: as §1, §2
(§6) ASTM 5589 is a standard accelerated test method for determining resistance of various coatings (including paints) to algal defacement. To accommodate for high-throughput screening, this method was scaled down from petri plates to 6-well plates. A single coupon was placed with a pair of sterile forceps at the center of the agar plug (on top) with the painted surface facing upwards. Algal inoculums were prepared by mixing equal concentrations (approximately 1×10^6 cfu/ml) and equal volumes (depending on number of samples to be inoculated) of like growing organisms.
(§7) In this synergy study, three pool of mixed algae were prepared as the test inoculum, Gloeocapsa sp. and Oscillatoria sp. a mix of cyanobacteria grown on BG-11 media; Chlorella sp., Chlorella kessleri, and Nostoc commune are unicellular chlorphytes that were mixed and grown on Bold media; Trentepohlia aurea, Tretepohlia odorata, and Calotrix parientina are filamentous algae that were mixed and grown on Bold media.
(§8) Each well that contained a tested coupon was inoculated with 400 μl of organism mixture (approximately 1×10^6 cfu/ml) making sure that the whole surface (paint film as well as the agar surrounding it) was evenly covered. The plates were incubated at room temp (25° C.-26° C.) with cyclic exposure to light (OTT-Lite model #OTL4012P, 40 Watt, 26 KLumen) and dark phases, for a period of four weeks. The total area covered was evaluated at the end of each week according to percent area covered in 5% increments.
as §4, §5

[4] = system: Gs + Os; assay: as above; format: cell-based, Gloeocapsa sp. and Oscillatoria sp.; details: for MIC: total actives in paint, read-out: Total conc (minimum inhibitory concentration chosen for SI)
Method: as §1, §2, §6, §7, §8, §4, §5

[5] = system: ApCh; assay: Fungal efficacy on dry paint film (Modified ASTM 5590); format: cell-based, Aureobasidium pullulans, Cladosporium herbarum; details: for % Inhibition: at the total conc; for MIC: total actives in paint, read-out: Total conc (minimum inhibitory concentration chosen for SI)
Method: as §1, §2
as §3, with “Each well was inoculated with 400 microliter of organism mixture (approximately 1×10^6 cfu/ml) making sure that the whole surface (paint film as well as the agar surrounding it) was evenly covered. The plates were incubated at 30° C. in presence of moisture, for a period of four weeks.” left out
The SI is calculated based on F. C. […]

[6] = system: Cp + To + Ta; assay: Algal efficacy on dry paint film (Modified ASTM 5589); format: cell-based; details: for Total conc (minimum inhibitory concentration chosen for SI): total actives in paint
Method: as §1, §2, §6, §7, §8, §4, §5

[7] = cited from earlier work
[8] = system: Aa + Ap; assay: Fungal efficacy on dry paint film (Modified ASTM 5590); format: cell-based, Alternaria alternata, Aureobasidium pullulans; details: four weeks
Method: as §1, §2, §3, §4

[9] = system: blue-green algae (Anabaena flos-aquae); details: 7 day; cited from earlier work
[10] = system: marine algae (Skeletonema costatum); details: cited from earlier work
[11] = system: diatom (Navicula pelliculosa); details: 7 day; cited from earlier work
[12] = system: TV + Ch; assay: Fungal efficacy on dry paint film (Modified ASTM 5590); format: cell-based, Trichoderma viride, Cladosporium herbarum; details: four weeks
Method: as §1, §2, §3, §4

[13] = system: green algae (Selenastrum capricornutum); details: cited from earlier work; for EbC50: median effective concentration for biomass
[14] = Zinc Glyphosate with DCOIT study, at the total conc
[15] = Zinc Glyphosate with DCOIT study
[16] = Zinc Glyphosate with OIT study, at the total conc
[17] = Zinc Glyphosate with OIT study, NE=no end point at the concentration tested

CCCCCCCCn1sc(Cl)c(Cl)c1=O [DCOIT, 4,5-dichloro-2-n-octyl-4-isothiazolin-3-one]
% Inhibition [1, 14]: 80%
MIC [1, 15]: 1150 µg/mL
% Inhibition [1, 16]: 50%
MIC ([1]; Zinc Glyphosate with OIT study): 450 µg/mL
% Inhibition [2, 15]: 40%
MIC [2, 15]: 288 µg/mL (≈ 1020 µM)
% Inhibition ([2]; Zinc Glyphosate with OIT study): 100%
MIC [2, 17]: 450 µg/mL (≈ 1590 µM)
MIC [3, 15]: 575 µg/mL
MIC ([3]; Zinc Glyphosate with OIT study): 900 µg/mL
% Inhibition [3, 14]: 20%
% Inhibition [3, 16]: 100%
% Inhibition [4, 14]: 60%
MIC [4, 15]: 826 µg/mL
% Inhibition [4, 16]: 80%
MIC [4, 17]: 900 µg/mL
% Inhibition [5, 15]: 40%
MIC [5, 15]: 575 µg/mL
% Inhibition ([5]; Zinc Glyphosate with OIT study): 40%
MIC [5, 17]: 900 µg/mL
% Inhibition [6, 14]: 80%
Total conc (minimum inhibitory concentration chosen for SI) [6, 15]: 575 ppm
% Inhibition [6, 16]: 80%
Total conc (minimum inhibitory concentration chosen for SI) ([6]; Zinc Glyphosate with OIT study): 1350 ppm

O=C(O)CNCP(=O)(O)O [Glyphosate, N-(phosphonomethyl)glycine]
% Inhibition ([1]; 750 ppm in paint, four weeks): 0%
% Inhibition ([1]; 1500 ppm in paint, four weeks): 5%
% Inhibition ([1]; 2500 ppm in paint, four weeks): 10%
solubility in water [7]: relatively high
% Inhibition ([8]; 750 ppm in paint): 7.5%
% Inhibition ([8]; 1500 ppm in paint): 20%
% Inhibition ([8]; 2500 ppm in paint): 67.5%
EC50 [9]: 15 µg/mL (≈ 88.7 µM)
% Inhibition ([3]; 750 ppm in paint, four weeks): 37.5%
% Inhibition ([3]; 1500 ppm in paint, four weeks): 60%
% Inhibition ([3]; 2500 ppm in paint, four weeks): 80%
EC50 ([10]; 96 hr): 1.3 µg/mL (≈ 7.69 µM)
EC50 ([10]; 7 day): 0.64 µg/mL (≈ 3.79 µM)
EC50 [11]: 42 µg/mL (≈ 248 µM)
% Inhibition ([4]; 750 ppm in paint, four weeks): 15%
% Inhibition ([4]; 1500 ppm in paint, four weeks): 72.5%
% Inhibition ([4]; 2500 ppm in paint, four weeks): 90%
% Inhibition ([12]; 750 ppm in paint): 2.5%
% Inhibition ([12]; 1500 ppm in paint): 50%
% Inhibition ([12]; 2500 ppm in paint): 72.5%
EbC50 ([13]; 72 hr): 485 mg/L
ErC50 ([13]; 72 hr, median effective concentration for growth rate): 460 mg/L
EbC50 ([13]; 7 day): 13.8 mg/L
% Inhibition ([6]; 750 ppm in paint, four weeks): 0%
% Inhibition ([6]; 1500 ppm in paint, four weeks): 10%
% Inhibition ([6]; 2500 ppm in paint, four weeks): 7.5%

Zinc Glyphosate
% Inhibition ([1]; 750 ppm in paint, four weeks): 20%
% Inhibition ([1]; 1500 ppm in paint, four weeks): 27.5%
% Inhibition ([1]; 2500 ppm in paint, four weeks): 30%
% Inhibition ([8]; 1500 ppm in paint): 47.5%
% Inhibition ([8]; 2500 ppm in paint): 70%
% Inhibition ([4]; 750 ppm in paint, four weeks): 15%
% Inhibition ([4]; 1500 ppm in paint, four weeks): 72.5%
% Inhibition ([4]; 2500 ppm in paint, four weeks): 90%
% Inhibition ([12]; 750 ppm in paint): 50%
% Inhibition ([12]; 1500 ppm in paint): 75%
% Inhibition ([12]; 2500 ppm in paint): 90%
